In ChEMBL document CHEMBL1201862, “PubChem BioAssay data set” (2004):
“And” between values parts separate entries of the source, which are not always exact repeats. Equal values may be shown once.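 All cell lines were grown in 96-well plates and treated with compound for 48 hours. GI50 marks 50% less growth.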 The source made the active and inactive calls. Cut-off read from the data, not from the text of the source: active = GI50 up to about 1.1 µM and inactive = higher.

Assays:
Assay in all cases: inhibition of tumour cell growth, NCI panel, 48 h
HCT-116 = test system: HCT-116
SF-295 = test system: SF-295
MDA-MB-435 = test system: MDA-MB-435
SR = test system: SR
M19-MEL = test system: M19-MEL
NCI/ADR-RES = test system: NCI/ADR-RES
MOLT-4 = test system: MOLT-4
LXFL 529 = test system: LXFL 529
T47D = test system: T47D
MDA-MB-231 = test system: MDA-MB-231
HOP-92 = test system: HOP-92
DMS-273 = test system: DMS-273
HOP-18 = test system: HOP-18
KM-20L2 = test system: KM-20L2
DU-145 = test system: DU-145
SK-MEL-2 = test system: SK-MEL-2
MCF7 = test system: MCF7
DMS-114 = test system: DMS-114
PC-3 = test system: PC-3
HCT-15 = test system: HCT-15
HT-29 = test system: HT-29
BT-549 = test system: BT-549
XF498 = test system: XF498
DLD-1 = test system: DLD-1
Hs-578T = test system: Hs-578T
MDA-N = test system: MDA-N
SNB-78 = test system: SNB-78
CCRF-CEM = test system: CCRF-CEM
NCI-H23 = test system: NCI-H23
OVCAR-3 = test system: OVCAR-3
ACHN = test system: ACHN
SN12C = test system: SN12C
UO-31 = test system: UO-31
SNB-19 = test system: SNB-19
TK-10 = test system: TK-10
SF-268 = test system: SF-268
SK-MEL-28 = test system: SK-MEL-28
SF-539 = test system: SF-539
HOP-62 = test system: HOP-62
OVCAR-4 = test system: OVCAR-4
Malme-3M = test system: Malme-3M
HL-60 = test system: HL-60
RPMI-8226 = test system: RPMI-8226
OVCAR-5 = test system: OVCAR-5
HCC 2998 = test system: HCC 2998
CAKI-1 = test system: CAKI-1
KM12 = test system: KM12
UACC-257 = test system: UACC-257
NCI-H522 = test system: NCI-H522
A498 = test system: A498
IGROV-1 = test system: IGROV-1
EKVX = test system: EKVX
SK-MEL-5 = test system: SK-MEL-5
NCI-H460 = test system: NCI-H460
K562 = test system: K562
UACC-62 = test system: UACC-62
NCI-H226 = test system: NCI-H226
OVCAR-8 = test system: OVCAR-8
SW-620 = test system: SW-620
U-251 = test system: U-251
RXF 393 = test system: RXF 393
M14 = test system: M14
SK-OV-3 = test system: SK-OV-3
786-0 = test system: 786-0
A549 = test system: A549
LOX IMVI = test system: LOX IMVI
SNB-75 = test system: SNB-75
COLO 205 = test system: COLO 205

Measured: GI50

CCN(CC)CCN1C(=O)c2c(c3c4cccc(Cl)c4n(C4OC(CO)C(OC)C(O)C4O)c3c3[nH]c4c(Cl)cccc4c23)C1=O (stereo unspecified)
0.103 µM and 0.132 µM: HCT-15
active: HCT-116 < 0.0164 µM | SF-295 < 0.0165 µM | MDA-MB-435 0.0147 µM | SR < 0.0137 µM | M19-MEL 0.0303 µM | NCI/ADR-RES 0.169 µM | MOLT-4 < 10 nM and 17.6 nM | LXFL 529 < 0.0239 µM | T47D 0.0212 µM | MDA-MB-231 0.182 µM | HOP-92 < 34.4 nM and < 24 nM | DMS-273 < 0.0178 µM | HOP-18 0.00101 µM | KM-20L2 0.773 µM | DU-145 0.0121 µM | SK-MEL-2 42.8 nM and 68.1 nM | MCF7 < 0.01 µM | DMS-114 0.0413 µM | PC-3 < 0.0386 µM | HT-29 < 0.0189 µM | BT-549 0.175 µM | XF498 0.0463 µM | DLD-1 0.0918 µM | Hs-578T 0.0379 µM | MDA-N 0.0111 µM | SNB-78 0.00101 µM | CCRF-CEM < 0.0166 µM

CN(C)CC1(Cc2ccccc2)CCC(Cc2ccccc2)C1=O (stereo unspecified)
5.21 µM: HCT-15
inactive: NCI-H23 18.1 µM | HCT-116 11.1 µM | OVCAR-3 6.95 µM | SF-295 16.6 µM | ACHN 16.1 µM | MDA-MB-435 10.2 µM | SN12C 9.77 µM | SR 4.47 µM | M19-MEL 16.5 µM | UO-31 16.9 µM | SNB-19 16 µM | NCI/ADR-RES 9.68 µM | TK-10 13.4 µM | SF-268 14.8 µM | SK-MEL-28 12.3 µM | MOLT-4 2.88 µM | SF-539 18.1 µM | HOP-62 18 µM | OVCAR-4 16.3 µM | Malme-3M 12.5 µM | HL-60 3.29 µM | RPMI-8226 1.89 µM | OVCAR-5 18 µM | HCC 2998 7.05 µM | LXFL 529 2.71 µM | T47D 8.61 µM | CAKI-1 13.3 µM | KM12 8.36 µM | MDA-MB-231 11.2 µM | HOP-92 17.4 µM | DMS-273 10.5 µM | HOP-18 8.47 µM | KM-20L2 17.1 µM | UACC-257 14.9 µM | NCI-H522 2.84 µM | A498 15.5 µM | DU-145 14.8 µM | SK-MEL-2 12.2 µM | IGROV-1 9.04 µM | MCF7 5.15 µM | EKVX 17.1 µM | DMS-114 15.8 µM | PC-3 10.1 µM | SK-MEL-5 13.7 µM | NCI-H460 12.2 µM | HT-29 13 µM | K562 2.79 µM | UACC-62 16.5 µM | BT-549 8.95 µM | NCI-H226 20.1 µM | XF498 21.9 µM | OVCAR-8 5.73 µM | SW-620 3.67 µM | U-251 17.5 µM | RXF 393 13.9 µM | DLD-1 2.86 µM | M14 10.1 µM | Hs-578T 15.6 µM | SK-OV-3 21.8 µM | 786-0 2.07 µM | A549 17.3 µM | MDA-N 11 µM | LOX IMVI 6.9 µM | SNB-78 15.8 µM | SNB-75 14.4 µM | COLO 205 6.85 µM | CCRF-CEM 2.79 µM
